Data reported in patent publication US5985603A, “P2x receptor DNA and protein sequence” (Glaxo Group Limited, priority 1994, dated 1999).
Where a name gives a salt, the structure may show the parent alone. Read-outs that look alike come from different tables or passages of the source.

Experiments:
Assay type in all cases: cell-based
hP2X [1] = target: T1, hP2X (Homo sapiens, UniProt P51575); test: antagonist inhibition of ATP-evoked currents in Xenopus oocytes expressing hP2X; conditions: for inhibition of inward currents evoked by 10 μM ATP: 10 μM ATP (approximately EC90); for reversibility of antagonism on washout: PPADS, P5P
T1 construct: expressed in transfected cells; host or cells: Xenopus oocytes injected with in vitro transcribed RNA
T1 sequence (P51575 1-399): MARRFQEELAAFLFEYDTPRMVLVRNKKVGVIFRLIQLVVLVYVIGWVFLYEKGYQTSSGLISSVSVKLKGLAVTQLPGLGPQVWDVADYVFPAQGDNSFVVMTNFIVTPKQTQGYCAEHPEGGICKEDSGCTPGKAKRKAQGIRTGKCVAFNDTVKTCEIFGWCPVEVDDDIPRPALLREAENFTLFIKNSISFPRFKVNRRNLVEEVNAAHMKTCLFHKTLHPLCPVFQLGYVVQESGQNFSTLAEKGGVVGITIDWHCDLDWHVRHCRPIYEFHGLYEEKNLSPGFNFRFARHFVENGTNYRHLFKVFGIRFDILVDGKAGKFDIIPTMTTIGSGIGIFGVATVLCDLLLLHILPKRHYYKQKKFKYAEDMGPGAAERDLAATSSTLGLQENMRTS
Experimental: (§1) Human urinary bladder P2X cDNA, subcloned into the pBKCMV expression vector, was linearized with Notl, and transcribed in vitro with T3 polymerase in the presence of cap analogue m7G(5')ppp(5')G. Defolliculated Xenopus oocytes (Bertrand et al, Electrophysiology of neuronal nicotinic acetylcholine receptors expressed in Xenopus oocytes following nuclear injection of genes or cDNAs Meth Neurosci 4: 174-193 (1991)) were injected with 50 ng of human P2X in vitro transcribed RNA, and incubated at 18° C. for 2-6 days in the ND96 solution (mM): NaCl96, KCl2, MgCl2 1, CaCl2 2, sodium pyruvate 5, HEPES 5, ph 7.6-7.5, penicillin (10 U/ml), and streptomycin (10 μg/ml).
Oocytes were placed in a 1 ml chamber and superfused at 2-3 ml/min with ND96 solution with 0.1 mM BaCl2 replacing the 2 mM CaCl2 to prevent activation of endogenous calcium-activated chloride currents (Barish, A transient calcium-dependent chloride current in the immature Xenopus oocytes J Physiol 342: 309-325 (1983)). Currents were measured using a two-electrode voltage-clamp amplifier (Geneclamp Axon Instruments)at a holding potential of -60 mV. Microelectrodes were filled with 3 M KCl (0.5-2 M.OMEGA.). Data were collected using PClamp software (Axon Instruments). ATP and other purinoceptor agonists were applied by a U-tube perfusion system (Fenwick et al, A patch clamp study of bovine chromaffin cells and their sensitivity to acetylcholine J Physiol 331: 577-597 (1982)) placed close (200-500 μm) to the oocyte. […] Concentration response relationships to ATP and its analogs were determined by measuring the peak amplitude of responses to a 5 s application of agonist applied at 10 min intervals. Responses to agonists were normalized in each oocyte to the peak response evoked by 100 μM ATP; 100 μM ATP was usually applied at the beginning and at the end of an experiment to determine if there was any rundown of the response. […] Antagonists were applied both in the superfusate and together with ATP in the U-tube solution. Antagonists were superfused for 5-10 min prior to the application of ATP.
Concentration response curves for purinoceptor agonists were fitted with a Hill slope of 1. Equi-effective concentrations i.e. concentration of agonist, giving 50% of the response to 100 μM ATP, (EEC50) were determined from individual concentration response curves. […] Data are presented throughout as mean ± SEM for a given number of oocytes.

PC12 P2X receptor = target: T2, PC12 P2X receptor (Rattus norvegicus, UniProt P49653); test: functional properties of cloned P2X receptors (electrical recordings): PC12
T2 construct: host or cells: HEK293 cells (oocytes are also named for the functional characterisation of clone 3)
T2 sequence (P49653 1-472): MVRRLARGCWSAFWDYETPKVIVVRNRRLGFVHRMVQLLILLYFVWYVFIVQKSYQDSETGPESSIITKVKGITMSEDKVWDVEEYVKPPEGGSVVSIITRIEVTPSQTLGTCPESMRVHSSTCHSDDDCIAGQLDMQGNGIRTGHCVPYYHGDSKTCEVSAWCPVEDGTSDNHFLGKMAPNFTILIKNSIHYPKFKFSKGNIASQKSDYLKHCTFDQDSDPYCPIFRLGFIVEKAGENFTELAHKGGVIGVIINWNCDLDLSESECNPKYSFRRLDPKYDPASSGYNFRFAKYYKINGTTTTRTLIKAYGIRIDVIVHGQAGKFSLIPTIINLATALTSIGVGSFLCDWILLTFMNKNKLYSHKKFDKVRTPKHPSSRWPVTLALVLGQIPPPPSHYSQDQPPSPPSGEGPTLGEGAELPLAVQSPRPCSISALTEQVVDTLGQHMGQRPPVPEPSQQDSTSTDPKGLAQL
Experimental: (§2) HEK 293 cells were transfected by the lipofectin method (Felgner et al., Proc. Nat'l. Acad. Sci. USA 84 7413-7417 (1987)) with P2X -plasmid. DNA concentration used was 1 mg/2 ml medium placed into a 35 mm petri dish containing four 11 mm diameter coverslips on which HEK cells were placed at 10,000 cells per coverslip. […] Currents were recorded from HEK 293 cells using whole-cell recording methods and the AXOPATCH™ 200 amplifier (Axon Instruments); patch pipettes (5 M.OMEGA.) contained (mM) Cs or K aspartate 140, NaCl 5, EGTA 11, HEPES 5. The external solution was (mM) NaCl 150, KCl2, CaCl2 2, MgCl2 1, HEPES 5 and glucose 11; the pH and osmolarity of both solutions were maintained at 7.3 and 305 mosmol/l respectively. All recordings performed at room temperature. Data acquisition and analysis were performed using pCLAMP™ and AXOGRAPH™ software (Axon Instruments). […] The pH and osmolarity of the solutions were 7.4 and 295 mosmol/l respectively. For single channel measurements, a […]™ 500 amplifier and outside-out recording methods were used (Adelman et al., Neuron 9 209-216 (1992)). Wax-coated patch pipettes (5-10 M.OMEGA.) contained (mM) K-gluconate 115, HEPES 5, BAPTA 5 and MgCl2 0.5, external solution was 96 mM NaCl, 2 mM KCl, 1.8 mM CaCl2, 1 mM MgCl2, 5 mM Hepes pH 7.6, and 5 mM sodium pyruvate.
(§3) The functional characterisation of the clone illustrated in FIG. 2 (referred to herein as clone 3) was carried out by electrical recordings from transfected HEK293 cells and from oocytes injected with the in vitro transcribed RNA, as described in Example 4 for the rat vas deferens P2X receptor. Table A summarizes the main properties of clone 3 as compared to those of rat vas/human bladder cDNA clone, and the PC12 cDNA clone (provided by David Julius and Tony Brake of the University of California at San Francisco).

[2] = target: T3, rat superior cervical ganglion P2X receptor (clone 3) (Rattus norvegicus, UniProt P51577); test: functional properties of cloned P2X receptors (electrical recordings): clone 3; conditions: for antagonist profile, clone 3 (block): Table A, concentration not given; for sensitivity of ATP-activated currents to antagonism, compared with rat vas deferens/human bladder and PC12 forms: clone 3 (FIG. 15)
T3 construct: The insert appeared to be a full length cDNA; expressed in transfected cells; host or cells: HEK293 cells transfected with pcDNA3 construct p464 (also oocytes injected with in vitro transcribed RNA)
T3 sequence (P51577 1-388): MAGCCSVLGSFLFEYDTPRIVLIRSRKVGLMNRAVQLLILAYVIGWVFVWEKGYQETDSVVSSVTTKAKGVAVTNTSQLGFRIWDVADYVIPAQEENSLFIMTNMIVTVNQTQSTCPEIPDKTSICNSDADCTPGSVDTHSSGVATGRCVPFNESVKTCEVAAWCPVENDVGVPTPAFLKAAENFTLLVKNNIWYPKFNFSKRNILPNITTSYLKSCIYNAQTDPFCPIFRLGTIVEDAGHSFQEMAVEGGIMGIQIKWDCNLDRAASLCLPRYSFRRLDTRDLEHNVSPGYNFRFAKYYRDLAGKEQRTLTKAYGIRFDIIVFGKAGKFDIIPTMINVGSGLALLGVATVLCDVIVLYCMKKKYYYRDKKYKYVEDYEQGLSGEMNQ
Experimental: as §2, §3

hP2X [3] = target: T1, hP2X; test: inward currents evoked by purinoceptor agonists in Xenopus oocytes expressing hP2X; conditions: for Emax: read-out: maximal response, % of the maximal ATP response; for relative potency: relative to ATP, from EEC50; for full agonist activity: concentration-response curves; for Emax at 100 µM: read-out: small inward current, % of the response to 100 μM ATP
Experimental: as §1
Oocytes were placed in a 1 ml chamber and superfused at 2-3 ml/min with ND96 solution with 0.1 mM BaCl2 replacing the 2 mM CaCl2 to prevent activation of endogenous calcium-activated chloride currents (Barish, A transient calcium-dependent chloride current in the immature Xenopus oocytes J Physiol 342: 309-325 (1983)). Currents were measured using a two-electrode voltage-clamp amplifier (Geneclamp Axon Instruments)at a holding potential of -60 mV. Microelectrodes were filled with 3 M KCl (0.5-2 M.OMEGA.). Data were collected using PClamp software (Axon Instruments). […] Antagonists were applied both in the superfusate and together with ATP in the U-tube solution.
Concentration response curves for purinoceptor agonists were fitted with a Hill slope of 1. […] Data are presented throughout as mean ± SEM for a given number of oocytes.

O=S(=O)(O)c1cc(N=C=S)ccc1C=Cc1ccc(N=C=S)cc1S(=O)(=O)O [DIDS, 4,4'-diisothiocyanatostilbene 2,2'-disulphonic acid, disodium salt]
IC50 (hP2X [1]): ~1 µM | inhibition of inward currents evoked by 10 μM ATP (hP2X [1]): inhibited inward currents evoked by 10 μM ATP | reversibility of inhibitory effects on washout (hP2X [1]; DIDS 100 μM): very slow to reverse on washout | IC50 (PC12 P2X receptor): > 100 µM

Cc1ncc(COP(=O)(O)O)c(C=O)c1O [P5 P, Pyridoxal 5-phosphate monohydrate]
antagonist profile, clone 3 (block) [2]: < 40% | sensitivity of ATP-activated currents to antagonism, compared with rat vas deferens/human bladder and PC12 forms [2]: much less sensitive to antagonism | IC50 (hP2X [1]): ~20 µM | inhibition of inward currents evoked by 10 μM ATP (hP2X [1]): inhibited inward currents evoked by 10 μM ATP | reversibility of antagonism on washout (hP2X [1]): readily reversible on washout

Nc1ncnc2c1ncn2[C@@H]1O[C@H](COP(=O)(O)OP(=O)(O)OP(=O)(O)OP(=O)(O)OP(=O)(O)OC[C@H]2O[C@@H](n3cnc4c(N)ncnc43)[C@H](O)[C@@H]2O)[C@@H](O)[C@H]1O [AP5A, p1, p5-di [adenosine-5'] pentaphosphate trilithium salt]
EC50 (hP2X [3]): 2 ± 0.2 µM | Emax (hP2X [3]): ~65% | relative potency (hP2X [3]): 0.41

Nc1ncnc2c1ncn2[C@@H]1O[C@H](COP(=O)([O-])OP(=O)([O-])[O-])[C@@H](O)[C@H]1O.[Na+].[Na+].[Na+] [ADP, adenosine 5'-diphosphate sodium salt]
EC50 (hP2X [3]): 34.3 ± 16 µM | full agonist activity (hP2X [3]): full agonists | relative potency (hP2X [3]): 0.024

Nc1nc(Cl)nc2c1ncn2[C@@H]1O[C@H](COP(=O)(O)OP(=O)(O)OP(=O)(O)O)[C@@H](O)[C@H]1O [2chloroATP, 2-chloro-ATP tetra sodium salt]
EC50 (hP2X [3]): 0.76 ± 0.1 µM | comparison of concentration-effect curves (hP2X [3]; ATP, 2MeSATP and 2-chloro-ATP): superimposable | full agonist activity (hP2X [3]): full agonists | relative potency (hP2X [3]): 1.08

Nc1ncnc2c1ncn2[C@@H]1O[C@H](CO)[C@@H](O)[C@H]1O [Adenosine]
Emax at 100 µM (hP2X [3]): 2.3 ± 1.5%

2'-3'-O-(4-benzoylbenzol)ATP tetraethylamonium salt [BzATP]
maximal response, % of the maximal ATP response (hP2X [3]): about 65% | EC50 (hP2X [3]; read-out: EEC50: equieffective concentration producing an inward current equivalent to 50% of the peak response to 100 μM ATP, Hill slope of 1, mean ± SEM, n = 3-4, ATP value from mean data from all experiments): 4.2 ± 2.2 µM | relative potency (hP2X [3]): 0.20

O=c1ccn([C@@H]2O[C@H](COP(=O)(O)OP(=O)(O)OP(=O)(O)O)[C@@H](O)[C@H]2O)c(=O)[nH]1 [UTP, uridine 5'-triphosphate sodium salt]
Emax at 100 µM (hP2X [3]): 3.7 ± 1.8%

Nc1ncnc2c1ncn2[C@@H]1O[C@H](COP(=O)(O)OP(=O)(O)CP(=O)(O)O)[C@@H](O)[C@H]1O [d,β,γ-meATP, β,γ-methylene-D-ATP sodium salt]
EC50 (hP2X [3]): 24.1 ± 1.6 µM | relative potency (hP2X [3]): 0.034

Cc1nc(N=Nc2ccc(S(=O)(=O)O)cc2S(=O)(=O)O)c(COP(=O)(O)O)c(C=O)c1O [PPADS, pyridoxal phosphate 6-azophenyl 2',4'-disulphonic acid]
antagonist profile, clone 3 (block) [2]: < 30% | sensitivity of ATP-activated currents to antagonism, compared with rat vas deferens/human bladder and PC12 forms [2]: much less sensitive to antagonism | IC50 (hP2X [1]): ~1 µM | inhibition of inward currents evoked by 10 μM ATP (hP2X [1]): inhibited inward currents evoked by 10 μM ATP | reversibility of antagonism on washout (hP2X [1]): readily reversible on washout

Nc1ncnc2c1ncn2[C@@H]1O[C@H](COP(=O)(O)OP(=O)(O)OP(O)(O)=S)[C@@H](O)[C@H]1O [ATP-γ-S, adenosine 5'-O-(-3-thiophosphate) tetralithium salt]
EC50 (hP2X [3]): 10.6 ± 3.8 µM | Emax (hP2X [3]): ~65% | relative potency (hP2X [3]): 0.077

Nc1ncnc2c1ncn2[C@@H]1O[C@H](COP(=O)(O)O)[C@@H](O)[C@H]1O [AMP, adenosine 5'-monophosphate sodium salt]
Emax at 100 µM (hP2X [3]): 6.08 ± 2%
